From patent US6730679B1, “Pharmaceutical formulations” (SmithKline Beecham Corporation, priority 1996, dated 2004) come the findings set out here.

The nature of the data set: Aqueous solubility of the compound of formula (I). It is filed as physicochemical. The source says:
Current formulations of HIV protease inhibitors for oral administration are in powder or tablet form. However, HIV protease inhibitors in these oral formulations are generally poorly soluble and, therefore, poorly bioavailable for the above reasons. […] In addition, the compound of formula (I) is poorly wetted. Therefore, formulating the compound using standard formulary techniques is difficult and leads in any event to a formulation with low bioavailability.

For `CC(C)CN(C[C@@H](O)[C@H](Cc1ccccc1)NC(=O)O[C@H]1CCOC1)S(=O)(=O)c1ccc(N)cc1` (relative stereo) [compound of formula (I), 3S-[3R*(1R*, 2S*)]-[3-[[(4-aminophenyl)sulphonyl](2-methylpropyl)-amino]-2-hydroxy-1-phenylmethyl)propyl]carbamic acid, tetrahydro-3-furanyl ester], the “variation of aqueous solubility with pH” value (FIG. 1) was “does not significantly vary with pH”. Under “water (aqueous), room temperature”, this compound had a solubility of 95 µg/mL.

What is called solubility is the concentration that dissolves in the medium under given conditions. A lower solubility goes with little dissolved substance.
